Assay results published in US10155781B2, “Co-crystals, salts and solid forms of tenofovir alafenamide” (Gilead Sciences, Inc., priority 2015, dated 2018).
Counter-ions that a name gives are not always drawn. Like-named read-outs stand apart in the source and are kept apart here.

Conditions: solid material, compared by XRPD
Text: Two XRPD systems were used for the characterization of the samples.
(1) Bruker AXS C2 GADDS diffractometer uses Cu Kalpha radiation (40 kV, 40 mA), automated XYZ stage, laser video microscope for auto-sample positioning and a HiStar 2-dimensional area detector. X-ray optics consists of a single Göbel multilayer mirror coupled with a pinhole collimator of 0.3 mm. The beam divergence, i.e. the effective size of the X-ray beam on the sample, was approximately 4 mm. A θ-θ continuous scan mode was employed with a sample-detector distance of 20 cm which gives an effective 20 range of 3.2°-29.7°. Typically the sample was exposed to the X-ray beam for 120 seconds. The software used for data collection was GADDS for XP/2000 4.1.36 and the data was analyzed and presented using Diffrac Plus EVA v13.0.0.2 or v15.0.0.0.
Samples run under ambient conditions were prepared as flat plate specimens using powder as received without grinding. Approximately 1-2 mg of the sample was lightly pressed on a glass slide to obtain a flat surface.
(2) Bruker D8 diffractometer uses Cu Ka radiation (40 kV, 40 mA), θ-2θ goniometer, and divergence of V4 and receiving slits, a Ge monochromator and a Lynxeye detector. The software used for data collection was Diffrac Plus XRD Commander v2.6.1 and the data was analyzed and presented using Diffrac Plus EVA v13.0.0.2 or v15.0.0.0.
Samples were run under ambient conditions as flat plate specimens using powder as received. The sample was gently packed into a cavity cut into polished, zero-background (510) silicon wafer. The sample was rotated in its own plane during analysis. The details of the data collection was: Angular range: 2 to 42° 2θ; Step size: 0.05° 2θ; Collection time: 0.5 s/step
(3) PANanalytical XPERT-PRO diffractometer at ambient conditions under the following experimental settings: 45 KV, 40 mA, Kα1=1.5406 Å, scan range 2 to 40°, step size 0.0084 or 0.0167°, measurement time: 5 min.

Row | Compound | XRPD pattern after storage at 40° C. 75% RH for 14 days (solid form stability) | XRPD pattern after storage at 40° C. 75% RH for 14 days (solid form stability) (Hydrochloride)
1 | CC(C)OC(=O)[C@H](C)N[P@](=O)(CO[C@H](C)Cn1cnc2c(N)ncnc21)Oc1ccccc1 [Tenofovir alafenamide methanesulfonate pattern 1] | changed to another form | 
2 | CC(C)OC(=O)[C@H](C)N[P@](=O)(CO[C@H](C)Cn1cnc2c(N)ncnc21)Oc1ccccc1 [tenofovir alafenamide L-malate, Tenofovir Alafenamide L-Malate] | no change | 
3 | CC(C)OC(=O)[C@H](C)N[P@](=O)(CO[C@H](C)Cn1cnc2c(N)ncnc21)Oc1ccccc1 [tenofovir alafenamide benzenesulfonate, Tenofovir Alafenamide Benzenesulfonate] | no change | 
4 | CC(C)OC(=O)[C@H](C)N[P@](=O)(CO[C@H](C)Cn1cnc2c(N)ncnc21)Oc1ccccc1 [tenofovir alafenamide ethanesulfonate, Tenofovir Alafenamide Ethanesulfonate] | no XRPD change | 
5 | CC(C)OC(=O)[C@H](C)N[P@](=O)(CO[C@H](C)Cn1cnc2c(N)ncnc21)Oc1ccccc1 [tenofovir alafenamide hydrochloride, Tenofovir Alafenamide Hydrochloride] |  | remained unchanged
6 | CC(C)OC(=O)[C@H](C)N[P@](=O)(CO[C@H](C)Cn1cnc2c(N)ncnc21)Oc1ccccc1 [tenofovir alafenamide mucate pattern 1, Tenofovir Alafenamide Mucate] | no change | 
7 | CC(C)OC(=O)[C@H](C)N[P@](=O)(CO[C@H](C)Cn1cnc2c(N)ncnc21)Oc1ccccc1 [tenofovir alafenamide mucate pattern 2, Tenofovir Alafenamide Mucate] | no change | 
8 | CC(C)OC(=O)[C@H](C)N[P@](=O)(CO[C@H](C)Cn1cnc2c(N)ncnc21)Oc1ccccc1 [tenofovir alafenamide oxalate, Tenofovir Alafenamide Oxalate] | no change in XRPD | 
9 | CC(C)OC(=O)[C@H](C)N[P@](=O)(CO[C@H](C)Cn1cnc2c(N)ncnc21)Oc1ccccc1 [tenofovir alafenamide saccharin, Tenofovir Alafenamide Saccharin] | same XRPD pattern was obtained | 
